Square brackets hold non-standard residues; d marks the D form.

Assay [1] deals with TNBS-treated mice. Put plainly: TNBS-induced Inflammatory Bowel Disease (IBD) model. The format is in vivo. The settings on record: intranasal administration together with TNBS. The source says:
Inflammatory Bowel Disease (IBD) was induced in mice by the administration of trinitrobenzenesulphonic acid (TNBS), in 40% EtOH, to the mice. […] The IBD model is described in, for example, Keates et al. (2000) Gastroenterology 119:972–82.
The administration of EtOH alone (no TNBS) caused no weight loss in the animals. The “untreated” mice were given only the TNBS administration. The aMSH(4-13) mice were given an administration of TNBS, together with an intranasal administration of the aMSH(4-13) analog, which reduced the severity of the TNBS-induced weight loss.

Assay [2] deals with Leptin −/− mice. The assay is described as follows: Leptin -/- mouse model of obesity. The settings on record: 1 μg daily for three weeks, intranasally, intrarectally or subcutaneously; compared to untreated mice; FIG. 18A. It is filed as in vivo. As to the method:
Leptin −/− mice were used as a model of mammalian obesity to evaluate the effectiveness of an α-MSH analog and an α-MSH encoding nucleic acid to treat the condition. […] Leptin −/− obese mice were administered (either intranasally, intrarectally, or subcutaneously) with 1 μg of the α-MSH(4-13) analog daily for three weeks.

In the case of “Ac-CEH[dF]RWCKPV-NH2 (cysteine pairing not given here) [α-MSH(4-13) analog]”, the “survival of TNBS-treated animals” value in assay [1] is “increased the survival”. For the same substance, in assay [1] (FIG. 17A), the TNBS-induced weight loss entry was “decreased the weight loss”. In addition, the weight gain entry in assay [2] was “a decrease in weight gain”.

The record behind these values is patent publication US7169603B2, “α-MSH related compounds and methods of use” (MGI Pharma Biologics, Inc., priority 2000, dated 2007).
